Assay results reported in patent US7863408B2, “Body fluid compatible and biocompatible resin” (Asahi Kasei Kabushiki Kaisha, priority 2002, dated 2011).

Tests used:
[1] = Solubility in physiological saline; format: physicochemical; conditions: for dissolution of 10 mg compound in 0.1 ml of physiological saline / dissolution ratio in terms of camptothecin: Example 162; for dissolution ratio in terms of camptothecin: physiological saline, 10 mg compound in 0.1 ml
Protocol: 10 mg of each of compounds (203) and (206) was precisely weighed and individually added to 0.1 ml of physiological saline.

Colon 26 tumor cells = test: Antitumor assay, Colon 26; format: in vivo, mouse; conditions: Balb/C mice, 50 mg/kg in terms of paclitaxel
Protocol: Further, a control solution was prepared by dissolving paclitaxel as such in a mixture of ethanol, Cremophore EL (manufactured and sold by Sigma, U.S.A.) and physiological saline. Thus, two types of solutions, namely, a test sample solution and a control solution were obtained. Six female Balb/C mice (six weeks old) were divided into two groups, each consisting of three mice, and subsequently, a 4% suspension of Colon 26 tumor cells was intradermally transplanted to the flank of each of the mice. […] Each mouse of the other group of the two groups received administration of the control solution, wherein the control solution was administered in the same manner as in the case of the administration of the test sample solution (i.e., the dose of paclitaxel was 50 mg/kg), thereby obtaining a control group of mice. Separately, a group consisting of five female Balb/C mice (six weeks old), which were transplanted with Colon 26 tumor cells in the same manner as mentioned above, was provided. Each of the mice of such group received the administration of only physiological saline in the same manner as in the case of the administration of the test sample solution, to thereby obtain a non-treated group of mice. Each of the above-mentioned administration of the test sample solution, control solution and physiological saline was performed every 4 days, 7 times in total in the above-mentioned manner.
(§1) Evaluation was made of the antitumor activity in terms of the change (with the lapse of time) of the average tumor volume (%). The tumor volume was determined as follows. The major and minor diameters (a and b, respectively) (each in mm) of the tumor were externally measured, and the tumor volume (V) was obtained according to the following formula.
Further, a control solution was prepared by dissolving paclitaxel as such in a mixture of ethanol, Cremophore EL (manufactured and sold by Sigma, U.S.A.) and physiological saline. Thus, five types of solutions, namely, four types of test sample solutions and one control solution were obtained. Twenty-five female Balb/C mice (six weeks old) were divided into five groups, each consisting of five mice, and subsequently, a 4% suspension of Colon 26 tumor cells was intradermally transplanted to the flank of each of the mice. After two days from the transplantation, four groups of the five groups of mice respectively received the administration of the four test sample solutions obtained above, wherein the dose of the compound was 50 mg/kg in terms of paclitaxel. Each mouse of the other group of the five groups received administration of the control solution, wherein the control solution was administered in the same manner as in the case of the administration of the test sample solution (i.e., the dose of paclitaxel was 50 mg/kg), thereby obtaining a control group of mice. Separately, a group consisting of nine female Balb/C mice (six weeks old), which were transplanted with Colon 26 tumor cells in the same manner as mentioned above, was provided. Each of the mice of such group received the administration of only physiological saline in the same manner as in the case of the administration of the test sample solution, to thereby obtain a non-treated group of mice. Each of the above-mentioned administration of the test sample solution, control solution and physiological saline was performed every 7 days, 4 times in total in the above mentioned manner.
as §1, with “volume” for “volume (V)”

B16 melanoma cells = conditions: Example 149; C57BL/6 mice; 50 mg/kg in terms of paclitaxel, tail-vein injection; six days after administration
Protocol: Further, a control solution was prepared by dissolving paclitaxel as such in a mixture of ethanol, Cremophore EL (manufactured and sold by Sigma, U.S.A.) and physiological saline. Thus, two types of solutions, namely, a test sample solution and a control solution were obtained. Twenty-one female C57BL/6 mice (six weeks old) were divided into three groups, each consisting of seven mice, and subsequently, B16 melanoma cells were intradermally transplanted to the groin of each of the mice (5×10^6 cells per mouse). […] Each mouse of the other one group of the three groups received the administration of the control solution, wherein the control solution was administered in substantially the same manner as in the above-mentioned administration of the test sample solution, except that the dose of paclitaxel was 50 mg/kg, thereby obtaining a control group of mice. Separately, a group consisting of thirteen female C57BL/6 mice (six weeks old), which were transplanted with B16 melanoma cells in the same manner as mentioned above, was provided. Each of the mice of such group received the administration of physiological saline, to thereby obtain a non-treated group of mice.

[2] = Example 151, every 7 days, 4 times

For `CC(=O)O[C@H]1C(=O)[C@@]2(C)[C@H]([C@H](OC(=O)c3ccccc3)[C@]3(O)C[C@H](OC(=O)[C@H](O)[C@@H](NC(=O)c4ccccc4)c4ccccc4)C(C)=C1C3(C)C)[C@]1(OC(C)=O)CO[C@@H]1C[C@@H]2O` [paclitaxel, reference compound], the “dissolution of 1 mg in 10 ml of physiological saline” value ([1]; Example 145) was “not able to be completely dissolved” and the “order of the magnitudes of the antitumor activity” value (“order” for short) (Colon 26 tumor cells; [2]) was “(177)/(179)>(181)>(183)/paclitaxel”.
In the case of “carboxymethylated polyether-2′-Ala-paclitaxel [(179)]”, the “antitumor activity (average tumor volume with time) compared to paclitaxel as such” value (Colon 26 tumor cells; [2]) is reported as “significantly excellent” and the “order” value (Colon 26 tumor cells; [2]) is reported as “(177)/(179)>(181)>(183)/paclitaxel”.
In the case of “carboxymethylated polyether-2′-Gly-Gly-Phe-Gly-paclitaxel [Compound (197)]”, the “antitumor activity (relative average tumor volume) compared to paclitaxel as such” value (B16 melanoma cells) is reported as “significantly excellent” and the “antitumor activity (average tumor volume with time) compared to paclitaxel as such” value (Colon 26 tumor cells; Example 150, every 4 days, 7 times) is reported as “significantly excellent”.
With “carboxymethylated polyether-2′-Gly-paclitaxel [Compound (177)]” the “antitumor activity (average tumor volume with time) compared to paclitaxel as such” value (Colon 26 tumor cells; [2]) was “significantly excellent” and the “order” value (Colon 26 tumor cells; [2]) was “(177)/(179)>(181)>(183)/paclitaxel”.
For “carboxymethylated polyether-2′-Ile-paclitaxel [(183)]”, the “order” value (Colon 26 tumor cells; [2]) was “(177)/(179)>(181)>(183)/paclitaxel”.
For “carboxymethylated polyether-2′-Leu-paclitaxel [(181)]”, the “order” value (Colon 26 tumor cells; [2]) was “(177)/(179)>(181)>(183)/paclitaxel”.
In the case of “carboxymethylated polyether-20-Gly-Gly-Phe-Gly-camptothecin [(206)]”, the “dissolution of 10 mg compound in 0.1 ml of physiological saline” value [1] is reported as “completely dissolved” and the “dissolution ratio in terms of camptothecin” value [1] is reported as 4.5 mg/mL.
With “carboxymethylated polyether-20-Gly-camptothecin [Compound (203)]” the “dissolution of 10 mg compound in 0.1 ml of physiological saline” value [1] was “completely dissolved” and the “dissolution ratio in terms of camptothecin” value [1] was 3.5 mg/mL.
